In publication PMC10914731, “Homo-BacPROTAC-induced degradation of ClpC1 as a strategy against drug-resistant mycobacteria” (Nature Communications, 2024):
Values after ≈ are worked out from the molar mass of the structure shown. Values joined by “and” are separate entries in the source; they are usually repeats but may differ in a detail not shown here. Equal values may be shown once. Read-outs that look alike come from different tables or passages of the source. *1 amine or outer side, *2 acyl side, *3 side chain or, on linkers, in order; H or OH if unused. Where a SMILES comes first, the peptide text is derived from it. [ ]: non-standard residue; d: D form. X1 = C#CCn1cc(C[C@H](N[*:1])C(=O)[*:2])c2ccccc21; X7 = C=CCn1cc(C[C@H](N[*:1])C(=O)[*:2])c2ccccc21; NMeLeu(5-OH,4R) = CN[C@@H](C[C@@H](C)CO)C(=O)O; Phe(βR-OMe) = CO[C@H](c1ccccc1)[C@H](N)C(=O)O; NMeL = CN[C@@H](CC(C)C)C(=O)O

Key:
[1] = Microsomal stability, human; type: in vitro ADME; conditions: for Microsomal Stability Human: clearance in microsomes
Method: (§1) The kinetics of compound degradation in liver microsomes is assessed in an assay with 1 µmol/l of compound and 0.5 mg/ml liver microsomes in a medium of 100 mM Tris-HCl pH 7.5, 6.5 mM MgCl2 and 1 mM NADPH at 37 °C. The reaction is stopped at multiple time points by adding acetonitrile. After centrifugation, the compound concentration is measured in the supernatants by high-performance liquid chromatography (HPLC) tandem mass spectrometry (MS/MS). The results are fitted to a first-order decay and the half-lives are converted to clearance (stated as % of the liver blood flow (%Qh)) using the well-stirred liver model.

[2] = type: in vitro ADME, Rat; conditions: for Hepatocyte Rat: clearance in hepatocytes
Method: (§2) Cryopreserved hepatocytes are incubated in an appropriate buffer system containing 50% species serum. Following an acclimation period (15–30 min) in an incubator (37 °C, 5−10% CO2, 85–95% humidity) the test compound is added to the hepatocyte suspension (pH 7.4, typical cell density of about 1 million cells/mL; final concentration of test compound is 1 µM, final DMSO concentration <0.05% v/v). The cells are incubated for up to 6 h and samples are taken at 6 different time points. Samples are then quenched with acetonitrile and pelleted by centrifugation. The remaining amount of parent compound in the supernatants is then analysed by HPLC-MS/MS. Clearance is calculated from compound half-lives using the well-stirred liver model and is converted to clearance stated as % of the liver blood flow (% Qh).

[3] = type: in vitro ADME, Rat; conditions: for Microsomal Stability Rat: clearance in microsomes
Method: as §1

Caco-2 monolayers = test: in vitro; conditions: for CACO permeability PEAB: apical to basolateral; for CACO permeability PEBA: basolateral to apical; for Caco-2 Int. Perm: mean value of P(A−B) and P(B−A)
Source text: (§3) Supplementary Table 1. Structure-Activity Relationships part 1 (SPR, Caco-2) […]
(§4) SPR. Mean values ± standard deviation. Footnotes indicate the number of measurements performed for the respective compound: a) n = […]
(§5) [5] Permeability across Caco-2 monolayers in P(A−B): apical to basolateral and P(B−A): basolateral to apical direction (values reported in 10-
(§6) 6 cm s-1); efflux ratio = P(B−A)/P(A−B); Int. perm: mean value of P(A−B) and P(B−A). […] Influence of Trp-Nα methylation on P(A-B) and efflux
(§7) ratio. Bold: positive influence.

in vitro = conditions: human; for efflux ratio: Caco-2; for Papp A→B: apical to basolateral; for Papp B→A: basolateral to apical
Source text: as §3, §4, §5, §6, §7

[4] = Hepatocyte stability, mice; type: in vitro ADME; conditions: for Hepatocyte Mice: clearance in hepatocytes
Method: as §2

[5] = type: in vitro ADME, Human; conditions: for Hepatocyte Human: clearance in hepatocytes
Method: as §2

[6] = type: in vitro ADME, Mice; conditions: for Microsomal Stability Mice: clearance in microsomes
Method: as §1

[7] = target: ClpC1 NTD protein (M. tuberculosis) (Mycobacterium tuberculosis, UniProt P9WPC9); test: biochemical; type: binding; conditions: for koff: read-out: koff ClpC1-NTD
Mtb # 8673 = test: microbe, parasite or virus in culture; type: cell-based
Mtb # 11291 = test: microbe, parasite or virus in culture; type: cell-based; conditions: for MIC: read-out: MIC Mtb # 11291
Mtb ATCC 35825 = test: microbe, parasite or virus in culture; type: cell-based
[8] = SPR (Supplementary Table 1), read-out: KD ClpC1-NTD Mean ± SD
[9] = SPR, single independent measurements
[10] = SPR, single independent measurements, read-out: KD ClpC1-NTD
[11] = Mycobacterium tuberculosis, mean, n = 2 well replicates
[12] = Mycobacterium tuberculosis, single well replicates
[13] = Mycobacterium tuberculosis, ATCC35825, mean, n = 2 well replicates
[14] = Mycobacterium tuberculosis, ATCC35825, single well replicates

Chain of ClpC1 NTD protein (M. tuberculosis) (P9WPC9 1-156, looked up, natural form): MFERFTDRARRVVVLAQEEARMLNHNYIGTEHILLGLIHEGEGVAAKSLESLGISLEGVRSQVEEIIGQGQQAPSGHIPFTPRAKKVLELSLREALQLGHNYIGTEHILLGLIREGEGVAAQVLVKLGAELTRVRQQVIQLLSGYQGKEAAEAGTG

C=CCn1cc(C[C@@H]2NC(=O)[C@H](C(C)C)NC(=O)[C@H](CC(C)C)N(C)C(=O)[C@H](C(C)C)NC(=O)[C@H]([C@H](OC)c3ccccc3)NC(=O)[C@H](C)NC(=O)[C@H](C[C@@H](C)CO)N(C)C2=O)c2ccccc21 [Compound 13] (cyclo(A[Phe(βR-OMe)]V[NMeL]V[X7][NMeLeu(5-OH,4R)]))
Microsomal Stability Human QH [1]: >88.400%
Microsomal Stability Human [1]: > 88 %Qh
Hepatocyte Stability Rat QH [2]: 65.282%
Hepatocyte Rat [2]: 65 %Qh
Microsomal Stability Rat QH [3]: >87.900%
Microsomal Stability Rat [3]: > 88 %Qh
CACO permeability PEAB (Caco-2 monolayers): 2.4 ×10⁻⁶ cm/s
CACO permeability PEBA (Caco-2 monolayers): 18.999999999999998 ×10⁻⁶ cm/s
Caco-2 Int. Perm (Caco-2 monolayers): 10.7 10-6 cm s-1
efflux ratio (in vitro): 7.9
Papp A→B (in vitro; Caco-2, CACO permeability PEAB): 4.5 ×10⁻⁶ cm/s
Papp B→A (in vitro; Caco-2, CACO permeability PEBA): 33 ×10⁻⁶ cm/s
Hepatocyte Stability Mouse QH ([4]; Mouse): 58.852%
Hepatocyte Mice [4]: 59 %Qh
Hepatocyte Stability Human QH [5]: 18.968%
Hepatocyte Human [5]: 19 %Qh
Microsomal Stability Mouse QH [6]: >88.400%
Microsomal Stability Mice [6]: > 88 %Qh
Kd [7, 8]: 3.6 ± 0.2 nM
koff ClpC1-NTD [7, 9]: 0.1 s⁻¹
Kd [7, 10]: 3.66 nM and 3.44 nM
koff [7, 9]: 0.07 s⁻¹

Nc1ccc(C(=O)O)c(O)c1 [p-Aminosalicylic acid]
MIC (Mtb # 8673; [11]): 6.5 µM and 1 µg/mL
MIC (Mtb # 8673; [12]): 6.53 µM and 1 µg/mL
MIC (Mtb # 8673; single well replicates): 6.53 µM (≈ 1 µg/mL)
MIC Mtb # 8673 (Mtb # 8673; single well replicates): 1 µg/mL (≈ 6.53 µM)
MIC Mtb # 11291 (Mtb # 11291; single well replicates): 1 µg/mL (≈ 6.53 µM)
MIC (Mtb # 11291; single well replicates): 6.53 µM (≈ 1 µg/mL)
MIC (Mtb ATCC 35825; [13]): 104 µM and 16 µg/mL
MIC (Mtb ATCC 35825; [14]): 16 µg/mL and 104 µM
MIC (Mtb ATCC 35825; single well replicates): 104.48 µM (≈ 16 µg/mL)
MIC Mtb ATCC 35825 (Mtb ATCC 35825; single well replicates): 16 µg/mL (≈ 104 µM)

C#CCn1cc(C[C@@H]2NC(=O)[C@H](C(C)C)NC(=O)[C@H](CC(C)C)N(C)C(=O)[C@H](C(C)C)NC(=O)[C@H](Cc3ccccc3)NC(=O)[C@H](C)NC(=O)[C@H](C[C@@H](C)CO)N(C)C2=O)c2ccccc21 [SI-72] (cyclo(AFV[NMeL]V[X1][NMeLeu(5-OH,4R)]))
Microsomal Stability Human QH [1]: >88.400%
Microsomal Stability Human [1]: > 88 %Qh
Hepatocyte Stability Rat QH [2]: 81.5% and 81.75%
Hepatocyte Rat [2]: 82 %Qh
Microsomal Stability Rat QH [3]: 87.300%
Microsomal Stability Rat [3]: 87 %Qh
CACO permeability PEAB (Caco-2 monolayers): 0.29000000000000003 ×10⁻⁶ cm/s
CACO permeability PEBA (Caco-2 monolayers): 9.999999999999999 ×10⁻⁶ cm/s
Caco-2 Int. Perm (Caco-2 monolayers): 6.4 10-6 cm s-1
efflux ratio (in vitro): 61.4
Papp A→B (in vitro; Caco-2, CACO permeability PEAB): 0.17 ×10⁻⁶ cm/s
Papp B→A (in vitro; Caco-2, CACO permeability PEBA): 15 ×10⁻⁶ cm/s
Papp A→B (in vitro; Caco-2, Caco-2 permeability P (A-B)): 0.2 ×10⁻⁶ cm/s
Papp B→A (in vitro; Caco-2, Caco-2 permeability P (B-A)): 12.5 ×10⁻⁶ cm/s
Hepatocyte Mice [4]: 71 %Qh
Hepatocyte Stability Human QH [5]: 23.35% and 19.57%
Hepatocyte Human [5]: 12 %Qh
Microsomal Stability Mouse QH [6]: >88.400%
Microsomal Stability Mice [6]: > 88 %Qh
Kd [7, 8]: 14 ± 6 nM
koff ClpC1-NTD [7, 9]: 0.05 s⁻¹
Kd [7, 10]: 17.7 nM and 9.9 nM
koff [7, 9]: 0.07 s⁻¹

CC(=O)Nc1ccc(/C=N/NC(N)=S)cc1 [Thiacetazone]
MIC (Mtb # 8673; [11]): > 542 µM and > 128 µg/mL
MIC (Mtb # 8673; [12]): > 542 µM and > 128 µg/mL
MIC (Mtb # 8673; single well replicates): >541.68 µM
MIC Mtb # 8673 (Mtb # 8673; single well replicates): >128 µg/mL
MIC (Mtb # 11291; [11]): 4.2 µM and 1 µg/mL
MIC (Mtb # 11291; [12]): 4.23 µM and 1 µg/mL
MIC Mtb # 11291 (Mtb # 11291; single well replicates): 1 µg/mL (≈ 4.23 µM)
MIC (Mtb # 11291; single well replicates): 4.23 µM (≈ 1 µg/mL)
MIC (Mtb ATCC 35825; [13]): 4.2 µM and 1 µg/mL
MIC (Mtb ATCC 35825; [14]): 1 µg/mL and 4.23 µM
MIC (Mtb ATCC 35825; single well replicates): 4.23 µM (≈ 1 µg/mL)
MIC Mtb ATCC 35825 (Mtb ATCC 35825; single well replicates): 1 µg/mL (≈ 4.23 µM)
